# Measurements as given in paper PMC5758648, “Anti-glioma Natural Products Downregulating Tumor Glycolytic Enzymes from Marine Actinomycete Streptomyces sp. ZZ406” (Scientific Reports, 2018).
# Entries after “also recorded” stand apart in the source; their conditions may differ. Where a SMILES comes first, the peptide text is derived from it.
# How the values were obtained:
# [1] = SRB cytotoxicity assay, normal human astrocytes; assay type: cell-based; details: normal human astrocytes (HA), mean ± s.d., n = 3
# Procedure: (§1) Doxorubicin (DOX, a chemotherapeutic drug) was used as a positive control.
# (§2) Sulforhodamine B (SRB) assay as described in previous studies[19],[20] was used to determine the activity of tested compounds inhibiting the proliferation of glioma U87MG, U251, SHG44 cells, and normal human astrocytes (HA). Doxorubicin (DOX) was used as a positive control (CON).
# LDH5 = assay: Western blot, LDH5 expression in U87MG cells; assay type: cell-based, human; details: 48 h, 1 at 30 μM, 2 at 60 μM, western blot vs blank control
# Procedure: (§3) The active compounds 1 and 2 were further assayed for their effects on the expression levels of important tumor glycolytic enzymes (regulators) of HK2, PFKFB3, PKM2, and LDH5. […] Therefore, the effects of 1 and 2 on the expressions of these regulators in U87MG cells were evaluated. 2-Deoxyglucose (2-DG, a hexokinase inhibitor)[8], was used as a positive control. The U87MG cells were treated by 1 (30.0 μM), 2 (60.0 μM), or 2-DG (6.0 mM) for 48 h. Protein prepared from the compound-treated U87MG cells was subjected to western blot analysis. […] The full-length blots of Fig. 5 were provided as supplementary information (Fig. S61).
# (§4) Figure 5 The expression levels of HK2, PFKFB3, PKM2, and LDH5 in glioma U87MG cells. U87-MG cells were treated with compounds 1 (30 μM), 2 (60 μM), or 2-DG (6.0 mM) for 48 h. Protein extracted from the compound-treated cells was subjected to western blot analysis.
# (§5) Western blot analysis was used to detect the expression levels of tumor glycolytic regulators HK2, PFKFB3, PKM2, and LDH5. The detailed procedure, including protein sample preparation, determination of protein concentration, and western blot analysis, was described in the previous publication.
# human glioma U251 cells = assay: SRB antiproliferative assay, U251 glioma cells; assay type: cell-based; details: for Selectivity index (CC50/IC50), U251: CC50 in HA / IC50 in U251; for IC50: Homo sapiens, U-251, SRB assay, mean ± s.d., n = 3
# Procedure: as §1, §2
# human glioma SHG44 cells = assay: SRB antiproliferative assay, SHG44 glioma cells; assay type: cell-based; details: for Selectivity index (CC50/IC50), SHG44: CC50 in HA / IC50 in SHG44; for IC50: Homo sapiens, SHG-44, SRB assay, mean ± s.d., n = 3
# Procedure: as §1, §2
# PKM2 = assay: Western blot, PKM2 expression in U87MG cells; assay type: cell-based, human; details: 48 h, 1 at 30 μM, 2 at 60 μM, western blot vs blank control
# Procedure: as §3, §4, §5
# human glioma U87MG cells = assay: SRB antiproliferative assay, U87MG glioma cells; assay type: cell-based; details: for Selectivity index (CC50/IC50), U87MG: CC50 in HA / IC50 in U87MG; for IC50: Homo sapiens, U-87 MG, SRB assay, mean ± s.d., n = 3
# Procedure: as §1
# The procedure of the preparation of crude extract for bioactive assay was described in the previous publication. The crude extract was made to a concentration of 1.0 mg/mL. Sulforhodamine B (SRB) assay was used to evaluate the activity of the crude extract against the proliferation of glioma U87MG cells.
# as §2
# [2] = tested on: human glioma U87MG, U251 and SHG44 cells; assay: SRB antiproliferative assay, results summarised over the glioma cell lines; assay type: cell-based; details: for IC50: Homo sapiens, Glioma cell, range over U87MG, read-out: IC50 values against different glioma cells (range); for Activity in inhibiting the proliferation of glioma cells: U87MG
# Procedure: as §1, §2
# PFKFB3 = assay: Western blot, PFKFB3 expression in U87MG cells; assay type: cell-based, human; details: 48 h, 1 at 30 μM, 2 at 60 μM, western blot vs blank control
# Procedure: as §3, §4, §5
# HK2 = assay: Western blot, HK2 expression in U87MG cells; assay type: cell-based, human; details: 48 h, 1 at 30 μM, 2 at 60 μM, western blot vs blank control
# Procedure: as §3, §4, §5
# [3] = Stability in human liver microsomes; assay type: in vitro ADME; details: 37 °C; for Percentage compared to the zero time point: human liver microsomes; for Percentage compared to the zero time point: tested at 12.5 µg/mL
# Procedure: Therefore, it is interesting to understand the stability of compound 1 in human liver microsomes. Human liver microsomes were incubated with compound 1 at 37 °C in a water bath and the concentration of 1 at designed time points of 0, 15, 30, 60, 90, 120, 180, 240, and 360 min was determined by HPLC analysis. The results (Table 2 and Fig. 6) indicated the concentration of 1 had no change after the incubation of 30 min. The percentage of 1 was 98.4% (30 min), 70.2% (60 min), 65.3% (90 min), 54.8% (120 min), 35.5% (180 min), 28.2 (240 min), and 19.4% (360 min) when compared to 100.0% (0 min). The data indicated 1 was very stable in human liver microsomes in the first 30 min incubation with concentration gradually decreasing after the incubation of 30 min.
# Compound 1 was dissolved in 100 mM NaPO4 solution (pH 7.4) to make a sample solution with a final concentration of 125 μg/mL. Human liver microsomes were diluted by 100 mM NaPO4 solution (pH 7.4) to make liver microsomal solution with a concentration of 1.25 mg/mL. A mixture of the sample solution (90 μL) and the liver microsomal solution (720 μL) was mixed well and then pre-incubated at 37 °C for 7 min. The pre-incubated mixture was initiated by adding 90 μL 10 mM NADPH solution, mixed well, and then incubated at 37 °C in a water bath. At each designed time point of 0, 15, 30, 60, 90, 120, 180, 240 and 360 min, aliquot 80 μL of the incubated mixture was pipette by micropipet and then quenched by the addition of 320 μL methanol. The reaction mixture was centrifuged at 12000 rpm for 10 min at 5 °C to give the supernatant, which was submitted to HPLC analysis.
# [4] = tested on: human glioma U87MG, U251 and SHG44 cells; set-up: method as in PMID 28049552; details: cited from earlier work
# glioma = tested on: glioma; set-up: method as in PMID 20128807, PMID 15747063, PMID 29056497; details: cited from earlier work
compound,measurement,setting,value
"O=C(O)c1cc(CO)c2c(c1)C(=O)c1cccc(O)c1C2=O [Compound 1, 1-hydroxymethyl-8-hydroxy-anthraquinone-3-carboxylic acid]",CC50,[1],> 100 µM
same,Expression level of LDH5,LDH5,clearly reduced; also recorded: remarkably reduced
same,"Selectivity index (CC50/IC50), U251",human glioma U251 cells,> 17.5
same,IC50,human glioma U251 cells,5.7 ± 0.3 µM
same,"Selectivity index (CC50/IC50), SHG44",human glioma SHG44 cells,> 12.3
same,IC50,human glioma SHG44 cells,8.1 ± 0.4 µM
same,Expression level of PKM2,PKM2,clearly reduced; also recorded: remarkably reduced
same,"Selectivity index (CC50/IC50), U87MG",human glioma U87MG cells,> 21.3
same,IC50,human glioma U87MG cells,4.7 ± 0.2 µM
same,IC50,[2],4.7 to 8.1 µM
same,Expression level of PFKFB3,PFKFB3,clearly reduced; also recorded: remarkably reduced
same,Expression level of HK2,HK2,clearly reduced; also recorded: remarkably reduced
same,Stability in human liver microsomes,[3],good stability
same,Concentration in human liver microsomes,[3]; 0 min,12400 ng/mL
same,Concentration in human liver microsomes,[3]; 15 min,12000 ng/mL
same,Concentration in human liver microsomes,[3]; 30 min,12200 ng/mL
same,Concentration in human liver microsomes,[3]; 60 min,8700 ng/mL
same,Concentration in human liver microsomes,[3]; 90 min,8100 ng/mL
same,Concentration in human liver microsomes,[3]; 120 min,6800 ng/mL
same,Concentration in human liver microsomes,[3]; 180 min,4400 ng/mL
same,Concentration in human liver microsomes,[3]; 240 min,3500 ng/mL
same,Concentration in human liver microsomes,[3]; 360 min,2400 ng/mL
same,"Stability in human liver microsomes, first 30 min",[3]; first 30 min incubation,very stable
same,Percentage compared to the zero time point,[3]; 0 min,100.0%
same,Percentage compared to the zero time point,[3]; 15 min,96.8%
same,Percentage compared to the zero time point,[3]; 30 min,98.4%
same,Percentage compared to the zero time point,[3]; 60 min,70.2%
same,Percentage compared to the zero time point,[3]; 90 min,65.3%
same,Percentage compared to the zero time point,[3]; 120 min,54.8%
same,Percentage compared to the zero time point,[3]; 180 min,35.5%
same,Percentage compared to the zero time point,[3]; 240 min,28.2%
same,Percentage compared to the zero time point,[3]; 360 min,19.4%
"Cc1cc(=O)c2c(CC(=O)C[C@@H](O)CC(=O)O)cccc2o1 [Compound 2, 5-(2′-oxo-4′R-hydroxy-hexanoic acid)-2-methyl-chromone]",CC50,[1],> 100 µM
same,Expression level of LDH5,LDH5,clearly reduced; also recorded: remarkably reduced
same,"Selectivity index (CC50/IC50), U251",human glioma U251 cells,> 4.6
same,IC50,human glioma U251 cells,21.6 ± 1.7 µM
same,"Selectivity index (CC50/IC50), SHG44",human glioma SHG44 cells,> 3.8
same,IC50,human glioma SHG44 cells,25.8 ± 3.1 µM
same,Expression level of PKM2,PKM2,clearly reduced; also recorded: remarkably reduced
same,"Selectivity index (CC50/IC50), U87MG",human glioma U87MG cells,> 3.8
same,IC50,human glioma U87MG cells,25.7 ± 2.4 µM
same,IC50,[2],21.6 to 25.8 µM
same,Expression level of PFKFB3,PFKFB3,clearly reduced; also recorded: remarkably reduced
same,Expression level of HK2,HK2,clearly reduced; also recorded: remarkably reduced
"CC(=O)N[C@@H](CC(C)C)C(=O)N[C@@H](CO)C(=O)N[C@@H](C)C(=O)O [Compound 3, N-acetyl-L-leucine-L-serine-L-alanine] (Ac-Leu-Ser-Ala-OH)",Activity in inhibiting the proliferation of glioma cells,[2],inactive
"CC(=O)N1CC(C(=O)O)CN1C(=O)C(C)C (stereo not drawn) [Compound 4, 1-acetyl-2-isobutyrylpyrazolidine-4-carboxylic acid]",Activity in inhibiting the proliferation of glioma cells,[2],inactive
"Cc1cc(O)c2c(c1)C(=O)c1cccc(O)c1C2=O [Compound 5, chrysophanol]",IC50,human glioma U251 cells,1.2 ± 0.1 µM
same,IC50,human glioma SHG44 cells,3 ± 0.2 µM
same,IC50,human glioma U87MG cells,0.5 ± 0.1 µM
same,IC50,[2],0.5 to 3 µM
"Cc1c(C(=O)O)c(O)cc2c1C(=O)c1c(O)cccc1C2=O [Compound 6, 3,8-dihydroxy-1-methyl-anthraquinone-2-carboxylic acid]",IC50,human glioma U251 cells,13 ± 0.6 µM
same,IC50,human glioma SHG44 cells,36.3 ± 0.2 µM
same,IC50,human glioma U87MG cells,10.4 ± 0.5 µM
same,IC50,[2],10.4 to 36.3 µM
"CC(C)[C@@H]1NC(=O)[C@H](C)OC(=O)[C@@H](C(C)C)NC(=O)[C@@H](C(C)C)OC(=O)[C@H](C(C)C)NC(=O)[C@H](C)OC(=O)[C@@H](C(C)C)NC(=O)[C@@H](C(C)C)OC(=O)[C@H](C(C)C)NC(=O)[C@H](C)OC(=O)[C@@H](C(C)C)NC(=O)[C@@H](C(C)C)OC1=O [Compound 11, valinomycin]",Activity in inhibiting the proliferation of different glioma cells,[4],showed activity
"COc1cccc2c1C(=O)c1c(O)c3c(c(O)c1C2=O)C[C@@](O)(C(=O)CO)C[C@@H]3O[C@H]1C[C@H](N)[C@H](O)[C@H](C)O1 [DOX, Doxorubicin, reference compound]",CC50,[1],8.7 ± 1.2 µM
same,"Selectivity index (CC50/IC50), U251",human glioma U251 cells,0.9
same,IC50,human glioma U251 cells,9.6 ± 1.3 µM
same,"Selectivity index (CC50/IC50), SHG44",human glioma SHG44 cells,3.5
same,IC50,human glioma SHG44 cells,2.5 ± 1.1 µM
same,"Selectivity index (CC50/IC50), U87MG",human glioma U87MG cells,4.6
same,IC50,human glioma U87MG cells,1.9 ± 0.4 µM
same,IC50,[2],1.9 to 9.6 µM
O=C1c2cccc(O)c2C(=O)c2c(O)cc(CO)cc21 [aloe emodin],Activity against glioma,glioma,reported to have activity against glioma
O=C(O)c1cc(O)c2c(c1)C(=O)c1cccc(O)c1C2=O [rhein],Activity against glioma,glioma,reported to have activity against glioma
SZ-685C,Activity against glioma,glioma,reported to have activity against glioma
